# Results taken from patent publication US8349851B2, “JAK kinase modulating compounds and methods of use thereof” (Ambit Biosciences Corp., priority 2009, dated 2013).
# Tests used:
# [1] = system: csTF-1 cells (GM-CSFR/JAK2/STAT5 pathway); assay: csTF-1 cell-based reporter assay; parameters: species or system human; details: Homo sapiens; GM-CSF at 2 ng/mL, 4 hours; read-out: Cell Assay: CS0017: CS TF-1 reporter assay: IC50
# Description: csTF-1 Cell-based Reporter Assay
# csTF-1 cells are derived from the human erythroleukemia cell line that is growth dependent on GM-CSF and has an intact GM-CSFR/JAK2/STAT5 pathway. The cell line contains stably integrated beta-lactamase reporter gene under the control of the […] (irf 1) response element recognized by the activated transcription factor STATS. csTF-1 cells (Invitrogen K1219) were washed with assay media (97% OPTIMEM/0.5% dialyzed FBS/0.1 mM NEAA/1 mM Na pyr/P/S) and seeded in the same media at 5×10^5 cell/mL in T150 flask. After 16 hour incubation, cells were seeded at 2×10^5 cell/well in 50 μl volume, into Costar, clear bottom, 96-well assay plates. Serial dilutions of compounds were added to the plates with final DMSO concentration at 0.5% and GM-CSF at 2 ng/mL and the plates were then incubated at […] and 5% CO2 for 4 hours. The plates were brought to room temperature before adding Substrate Mixture according to manufacturer's protocol (Invitrogen, Catalog #K1085). The assay plates containing the substrate mixture were incubated in the dark at room temperature for 2 hours. Blue and green fluorescence was measured with excitation at 409 nm and emission at 460 nm (for blue) and excitation at 409 nm and emission at 530 nm (for green) using Spectra Max Gemini EM.
# [2] = target: T1, JAK3 (Homo sapiens, UniProt P52333); assay: Competition binding assay, JAK3; details: read-out: Binding Assay: JAK3 (active_KD, ENZ)
# T1 construct: made in house
# Text: (§1) Competition Binding Assay to Determine Binding Constants (Kd) of the Compounds Against JAK Kinases
# (§2) Competition binding assays used herein were developed, validated and performed as described in Fabian et al., Nature Biotechnology 2005, 23,329-336. Kinases were produced as fusions to T7 phage (See, Fabian et al. or WO04/015142) or alternatively, the kinases were expressed in HEK-293 cells and subsequently tagged with DNA for PCR detection (See, WO08/005310). For the binding assays, streptavidin-coated magnetic beads were treated with biotinylated affinity ligands for 30 min at rt to generate affinity resins. The liganded beads were blocked with excess biotin and washed with blocking buffer (SeaBlock (Pierce), 1% BSA, 0.05% Tween 20, 1 mM DTT) to remove unbound ligand and to reduce non-specific binding. […] Test compounds were prepared as 100× stocks in DMSO and rapidly diluted into the aqueous environment. DMSO was added to control assays lacking a test compound. Primary screen interactions were performed in polypropylene 384-well plates in a final volume of 34 μL, while Kd determinations were performed in polystyrene 96-well plates in a final volume of 135 μL. […] The kinase concentration in the eluates was measured by quantitative PCR. Each kinase was tested individually against each compound. Kds were determined using eleven serial threefold dilutions. A selectivity score, which is a quantitative measure of selectivity of a compound against a panel of enzymes, may be calculated for a compound by dividing the number of enzymes for which a compound meets a set criteria, (for example, a binding constant of 100 nM or less), by the total number of enzymes tested.
# [3] = target: T2, JAK2 (Homo sapiens, UniProt O60674); assay: Competition binding assay, JAK2; details: read-out: Binding Assay: JAK2 (active_KD)
# T2 construct: made in house
# Text: as §1, §2
# T1 sequence (P52333 822-1111 limits assumed): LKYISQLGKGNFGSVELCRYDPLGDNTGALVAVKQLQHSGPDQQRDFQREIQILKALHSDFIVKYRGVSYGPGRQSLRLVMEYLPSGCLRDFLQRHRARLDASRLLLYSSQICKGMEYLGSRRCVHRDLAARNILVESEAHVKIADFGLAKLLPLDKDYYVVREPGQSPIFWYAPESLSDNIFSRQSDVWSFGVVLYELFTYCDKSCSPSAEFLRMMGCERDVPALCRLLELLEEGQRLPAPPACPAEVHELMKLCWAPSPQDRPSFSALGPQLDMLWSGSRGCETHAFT
# T2 sequence (O60674 849-1124 limits assumed): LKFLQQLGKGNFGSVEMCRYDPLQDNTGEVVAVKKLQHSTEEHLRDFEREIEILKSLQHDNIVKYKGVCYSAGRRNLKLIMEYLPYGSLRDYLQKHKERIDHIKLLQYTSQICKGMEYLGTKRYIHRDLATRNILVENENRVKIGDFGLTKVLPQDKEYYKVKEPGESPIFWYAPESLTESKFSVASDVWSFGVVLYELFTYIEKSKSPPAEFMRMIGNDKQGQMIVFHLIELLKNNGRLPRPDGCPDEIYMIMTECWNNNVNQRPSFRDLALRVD
IC50 [1] [nM],Kd [2] [nM],Kd [3] [nM],SMILES
100 to 500,10 to 100,≤ 1,"Cc1cc(Nc2nc(C(O)c3ccc(F)cc3)nc3c(F)cccc23)n[nH]1 (racemic) [Example 61, (R,S)-(8-fluoro-4-(5-methyl-1H-pyrazol-3-ylamino)quinazolin-2-yl)(4-fluorophenyl)methanol]"
≤ 100,,,"[2H]C(O)(c1ccc(F)cc1)c1nc(Nc2cc(C)[nH]n2)c2ccccc2n1 (racemic) [Example 72, (R,S) (4-fluorophenyl)(4-(5-methyl-1H-pyrazol-3-ylamino)quinazolin-2-yl)methanol-1-d]"
100 to 500,> 100,1 to 10,"O=C(c1ccc(F)cc1)c1nc(Nc2cc[nH]n2)c2ccc(I)cc2n1 [Example 22, (4-(1H-pyrazol-3-ylamino)-7-iodoquinazolin-2-yl)(4-fluorophenyl)methanone]"
100 to 500,> 100,1 to 10,"Cc1cc(Nc2nc(C(=O)c3ccc(F)cc3)nc3ccc(F)cc23)n[nH]1 [Example 53, (6-fluoro-4-(5-methyl-1H-pyrazol-3-ylamino)quinazolin-2-yl)(4-fluorophenyl)methanone]"
100 to 500,10 to 100,1 to 10,"Cc1cc(Nc2nc(C(=O)c3ccc(F)cc3)nc3cc(Br)ccc23)n[nH]1 [Example 56, (7-bromo-4-(5-methyl-1H-pyrazol-3-ylamino)quinazolin-2-yl)(4-fluorophenyl)methanone]"
100 to 500,> 100,1 to 10,"Cc1cc(Nc2nc(C(=O)c3ccc(F)cc3)nc3c(F)cccc23)n[nH]1 [Example 60, (8-fluoro-4-(5-methyl-1H-pyrazol-3-ylamino)quinazolin-2-yl)(4-fluorophenyl)methanone]"
,,> 10,"COc1cc(C(=O)c2nc(Nc3cc(C)[nH]n3)c3ccccc3n2)ccc1F [Example 76, (4-fluoro-3-methoxyphenyl)(4-(5-methyl-1H-pyrazol-3-ylamino)quinazolin-2-yl)methanone]"
,,> 10,"Cc1cc(Nc2nc(C(=O)c3ccc(F)c(O)c3)nc3ccccc23)n[nH]1 [Example 77, (4-fluoro-3-hydroxyphenyl)(4-(5-methyl-1H-pyrazol-3-ylamino)quinazolin-2-yl)methanone]"

# More lines, now with the values behind:
SMILES,IC50 [1] [nM],Kd [2] [nM],Kd [3] [nM]
"Cc1cc(Nc2nc(C(O)c3ccc(F)cc3)nc3ccc(F)cc23)n[nH]1 (racemic) [Example 54, (R,S)-(6-fluoro-4-(5-methyl-1H-pyrazol-3-ylamino)quinazolin-2-yl)(4-fluorophenyl)methanol]",100 to 500,> 100,1 to 10
"OC(c1ccc(F)cc1)c1nc(Nc2cc[nH]n2)c2cc(F)ccc2n1 (racemic) [Example 55, (R,S)-(4-(1H-pyrazol-3-ylamino)-6-fluoroquinazolin-2-yl)(4-fluorophenyl)methanol]",> 500,> 100,1 to 10
"OC(c1ccc(F)cc1)c1nc(Nc2cc[nH]n2)c2ccc(Br)cc2n1 (racemic) [Example 58, (R,S)-(4-(1H-pyrazol-3-ylamino)-7-bromoquinazolin-2-yl)(4-fluorophenyl)methanol]",100 to 500,> 100,1 to 10
"COc1ccccc1C(O)c1nc(Nc2cc(C)[nH]n2)c2ccccc2n1 (racemic) [Example 63, (R,S)-(2-methoxyphenyl)(4-(5-methyl-1H-pyrazol-3-ylamino)quinazolin-2-yl)methanol]",100 to 500,10 to 100,1 to 10
"Cc1cc(Nc2nc(C(O)c3ccc(F)c(F)c3)nc3ccccc23)n[nH]1 (racemic) [Example 66, (R,S)-(3,4-difluorophenyl)(4-(5-methyl-1H-pyrazol-3-ylamino)quinazolin-2-yl)methanol]",100 to 500,≤ 10,≤ 1
"CCc1cc(Nc2nc(C(O)c3ccc(F)cc3)nc3ccccc23)n[nH]1 (racemic) [Example 74, (R,S)-(4-(5-ethyl-1H-pyrazol-3-ylamino)quinazolin-2-yl)(4-fluorophenyl)methanol]",,,≤ 1
"Cc1cc(Nc2nc(C(O)c3ccc(F)c(O)c3)nc3ccccc23)n[nH]1 (racemic) [Example 78, (R,S)-(2-fluoro-5-(hydroxy(4-(5-methyl-1H-pyrazol-3-ylamino)quinazolin-2-yl)methyl)phenol acetate]",,,≤ 1
"Fc1ccc(C(F)(F)c2nc(Nc3cc[nH]n3)c3ccc(F)cc3n2)cc1 [Example 21, 2-(difluoro(4-fluorophenyl)methyl)-7-fluoro-N-(1H-pyrazol-3-yl)quinazolin-4-amine]",100 to 500,10 to 100,1 to 10
"Cc1ccc2c(Nc3cc[nH]n3)nc(C(F)(F)c3ccc(F)cc3)nc2c1 [Example 27, 2-(difluoro(4-fluorophenyl)methyl)-7-methyl-N-(1H-pyrazol-3-yl)quinazolin-4-amine]",≤ 100,10 to 100,≤ 1
"Cc1cc(Nc2nc(C(F)(F)c3ccc(F)cc3)nc3cc(CO)ccc23)n[nH]1 [Example 49, (2-(difluoro(4-fluorophenyl)methyl)-4-(5-methyl-1H-pyrazol-3-ylamino)quinazolin-7-yl)methanol]",≤ 100,≤ 10,≤ 1
"Cc1cc(Nc2nc(C(O)c3ccc(F)cc3)nc3cc(Br)ccc23)n[nH]1 (stereo not shown) [Example 57, (7-bromo-4-(5-methyl-1H-pyrazol-3-ylamino)quinazolin-2-yl)(4-fluorophenyl)methanol]",100 to 500,,1 to 10
"Cc1cc(Nc2nc(C3(c4ccc(F)cc4)OCCO3)nc3ccccc23)n[nH]1 [Example 59, 2-(2-(4-fluorophenyl)-1,3-dioxolan-2-yl)-N-(5-methyl-1H-pyrazol-3-yl)quinazolin-4-amine]",≤ 100,10 to 100,≤ 1
"COc1ccccc1C(=O)c1nc(Nc2cc(C)[nH]n2)c2ccccc2n1 [Example 62, (2-methoxyphenyl)(4-(5-methyl-1H-pyrazol-3-ylamino)quinazolin-2-yl)methanone]",100 to 500,> 100,1 to 10
"Cc1cc(Nc2nc(C(O)c3cccc(F)c3)nc3ccccc23)n[nH]1 (stereo not shown) [Example 64, (3-fluorophenyl)(4-(5-methyl-1H-pyrazol-3-ylamino)quinazolin-2-yl)methanol]",100 to 500,10 to 100,1 to 10
"Cc1cc(Nc2nc(C(NC=O)c3ccc(F)cc3)nc3ccccc23)n[nH]1 (stereo not shown) [Example 65, N-((4-fluorophenyl)(4-(5-methyl-1H-pyrazol-3-ylamino)quinazolin-2-yl)methyl)formamide]",100 to 500,10 to 100,≤ 1
"Cc1cc(Nc2nc(C(O)c3ccc(F)c(Cl)c3)nc3ccccc23)n[nH]1 (stereo not shown) [Example 67, (3-chloro-4-fluorophenyl)(4-(5-methyl-1H-pyrazol-3-ylamino)quinazolin-2-yl)methanol]",100 to 500,≤ 10,≤ 1
"Cc1cc(Nc2nc(C(CC#N)c3ccc(F)cc3)nc3ccccc23)n[nH]1 (stereo not shown) [Example 68, 3-(4-fluorophenyl)-3-(4-(5-methyl-1H-pyrazol-3-ylamino)quinazolin-2-yl)propanenitrile]",≤ 100,10 to 100,1 to 10
